From patent USRE42890E1, “Furazanobenzimidazoles” (Basilea Pharmaceutica AG, priority 2003, dated 2011)

Key:
HeLa = assay: MTS proliferation assay, HeLa; assay type: cell-based, human; settings: 72 h incubation, read-out: MTS proliferation assay IC 50 HeLa
In short: (§1)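 A 72 h exposure to compound (final 0.3–10 μM, four levels) was followed by 3 h MTS incubation and an A492 read.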

Jily = assay: MTS proliferation assay, Jily; assay type: cell-based; settings: 72 h incubation, read-out: MTS proliferation assay IC 50 Jily
In short: (§2)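 Proliferation is followed by MTS conversion, measured as absorbance at 492 nm. Cells are exposed for 72 h to four fixed compound concentrations (10 μM down to 0.3 μM) under 37° C, 7.5% CO2 culture conditions.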

[1] = test system: adherent cells or suspension cells; assay: Hoechst 33342 nuclear staining (fraction of apoptotic nuclei); assay type: cell-based; set-up: key: 0 relating to no activity; 1 relating to weak activity comprising less than 70% of the cells; score 2 relating to strong activity comprising more than 70% of the cells
MRC5 = assay: MTS proliferation assay, MRC5; assay type: cell-based; settings: MRC5, 72 h incubation; read-out: MTS proliferation assay IC 50 MRC5
In short: as §2

HT1080 = assay: MTS proliferation assay, HT1080; assay type: cell-based, human; settings: HT1080, 72 h incubation; read-out: MTS proliferation assay IC 50 HT1080
In short: as §1

Jurkat = assay: MTS proliferation assay, Jurkat; assay type: cell-based, human; settings: 72 h incubation, read-out: MTS proliferation assay IC 50 Jurkat
In short: as §1

Structure (SMILES)	IC50 (HeLa) [nM]	IC50 (Jily) [nM]	Hoechst 33342 nuclear staining score ([1]; H460, conc 0.01 μm)	Hoechst 33342 nuclear staining score ([1]; H460, conc 0.1 μm)	Hoechst 33342 nuclear staining score ([1]; H460, conc 1 μm)	Hoechst 33342 nuclear staining score ([1]; HeLa, conc 0.01 μm)	Hoechst 33342 nuclear staining score ([1]; HeLa, conc 0.1 μm)	Hoechst 33342 nuclear staining score ([1]; HeLa, conc 1 μm)	Hoechst 33342 nuclear staining score ([1]; Jily, conc 0.01 μm)	Hoechst 33342 nuclear staining score ([1]; Jily, conc 0.1 μm)	Hoechst 33342 nuclear staining score ([1]; Jily, conc 1 μm)	Hoechst 33342 nuclear staining score ([1]; Jurkat, conc 0.01 μm)	Hoechst 33342 nuclear staining score ([1]; Jurkat, conc 0.1 μm)	Hoechst 33342 nuclear staining score ([1]; Jurkat, conc 1 μm)	Hoechst 33342 nuclear staining score ([1]; MRC5, conc 0.01 μm)	Hoechst 33342 nuclear staining score ([1]; MRC5, conc 0.1 μm)	Hoechst 33342 nuclear staining score ([1]; MRC5, conc 1 μm)	Hoechst 33342 nuclear staining score ([1]; PBLs, conc 0.01 μm)	Hoechst 33342 nuclear staining score ([1]; PBLs, conc 0.1 μm)	Hoechst 33342 nuclear staining score ([1]; PBLs, conc 1 μm)	further results
Nc1nonc1-c1nc2ccccc2n1CC(=O)c1ccccn1 [Example 59]	100 to 1000	100 to 1000	0	0	2 (score 2 relating to strong activity comprising more than 70% of the cells)	0	0	2 (score 2 relating to strong activity comprising more than 70% of the cells)	0	0	2 (score 2 relating to strong activity comprising more than 70% of the cells)	0	0	2 (score 2 relating to strong activity comprising more than 70% of the cells)	0	0	2 (score 2 relating to strong activity comprising more than 70% of the cells)	0	0	0	IC50 (MRC5): 100 to 1000 nM; IC50 (HT1080): 100 to 1000 nM; IC50 (Jurkat): 100 to 1000 nM
CC(=O)Nc1ccc(C(=O)Cn2c(-c3nonc3N)nc3ccccc32)cc1 [Example 60]	100 to 1000	100 to 1000	0	0	0	0	0	1 (1 relating to weak activity comprising less than 70% of the cells)	0	0	2 (score 2 relating to strong activity comprising more than 70% of the cells)	0	0	2 (score 2 relating to strong activity comprising more than 70% of the cells)	0	0	2 (score 2 relating to strong activity comprising more than 70% of the cells)	0	0	0	IC50 (MRC5): 100 to 1000 nM; IC50 (HT1080): 100 to 1000 nM; IC50 (Jurkat): 100 to 1000 nM
N#CCCNc1nonc1-c1nc2ccccc2n1CC(=O)c1ccc(N)cc1.O=C(O)C(=O)O [Example 61]	10 to 100	10 to 100	0	2 (score 2 relating to strong activity comprising more than 70% of the cells)	2 (score 2 relating to strong activity comprising more than 70% of the cells)	0	2 (score 2 relating to strong activity comprising more than 70% of the cells)	2 (score 2 relating to strong activity comprising more than 70% of the cells)	0	2 (score 2 relating to strong activity comprising more than 70% of the cells)	2 (score 2 relating to strong activity comprising more than 70% of the cells)	0	2 (score 2 relating to strong activity comprising more than 70% of the cells)	2 (score 2 relating to strong activity comprising more than 70% of the cells)	0	2 (score 2 relating to strong activity comprising more than 70% of the cells)	2 (score 2 relating to strong activity comprising more than 70% of the cells)	0	0	0	IC50 (MRC5): 10 to 100 nM; IC50 (HT1080): 10 to 100 nM; IC50 (Jurkat): 10 to 100 nM

Continued, in another order:

IC50 (HeLa) [nM]	Structure (SMILES)	IC50 (Jily) [nM]	Hoechst 33342 nuclear staining score ([1]; H460, conc 0.01 μm)	Hoechst 33342 nuclear staining score ([1]; H460, conc 0.1 μm)	Hoechst 33342 nuclear staining score ([1]; H460, conc 1 μm)	Hoechst 33342 nuclear staining score ([1]; HeLa, conc 0.01 μm)	Hoechst 33342 nuclear staining score ([1]; HeLa, conc 0.1 μm)	Hoechst 33342 nuclear staining score ([1]; HeLa, conc 1 μm)	Hoechst 33342 nuclear staining score ([1]; Jily, conc 0.01 μm)	Hoechst 33342 nuclear staining score ([1]; Jily, conc 0.1 μm)	Hoechst 33342 nuclear staining score ([1]; Jily, conc 1 μm)	Hoechst 33342 nuclear staining score ([1]; Jurkat, conc 0.01 μm)	Hoechst 33342 nuclear staining score ([1]; Jurkat, conc 0.1 μm)	Hoechst 33342 nuclear staining score ([1]; Jurkat, conc 1 μm)	Hoechst 33342 nuclear staining score ([1]; MRC5, conc 0.01 μm)	Hoechst 33342 nuclear staining score ([1]; MRC5, conc 0.1 μm)	Hoechst 33342 nuclear staining score ([1]; MRC5, conc 1 μm)	Hoechst 33342 nuclear staining score ([1]; PBLs, conc 0.01 μm)	Hoechst 33342 nuclear staining score ([1]; PBLs, conc 0.1 μm)	Hoechst 33342 nuclear staining score ([1]; PBLs, conc 1 μm)	further results
100 to 1000	Nc1ccc(C(=O)Cn2c(-c3nonc3N)nc3ccccc32)cc1.O=C(O)C(=O)O [Example 62]	10 to 100	0	2 (score 2 relating to strong activity comprising more than 70% of the cells)	2 (score 2 relating to strong activity comprising more than 70% of the cells)	0	2 (score 2 relating to strong activity comprising more than 70% of the cells)	2 (score 2 relating to strong activity comprising more than 70% of the cells)	0	2 (score 2 relating to strong activity comprising more than 70% of the cells)	2 (score 2 relating to strong activity comprising more than 70% of the cells)	0	2 (score 2 relating to strong activity comprising more than 70% of the cells)	2 (score 2 relating to strong activity comprising more than 70% of the cells)	0	2 (score 2 relating to strong activity comprising more than 70% of the cells)	2 (score 2 relating to strong activity comprising more than 70% of the cells)	0	0	0	IC50 (MRC5): 10 to 100 nM; IC50 (HT1080): 10 to 100 nM; IC50 (Jurkat): 10 to 100 nM
10 to 100	CC(=O)Nc1ccc(C(=O)Cn2c(-c3nonc3N)nc3ccccc32)cc1[N+](=O)[O-] [Example 64]	10 to 100	0	2 (score 2 relating to strong activity comprising more than 70% of the cells)	2 (score 2 relating to strong activity comprising more than 70% of the cells)	0	2 (score 2 relating to strong activity comprising more than 70% of the cells)	2 (score 2 relating to strong activity comprising more than 70% of the cells)	2 (score 2 relating to strong activity comprising more than 70% of the cells)	2 (score 2 relating to strong activity comprising more than 70% of the cells)	2 (score 2 relating to strong activity comprising more than 70% of the cells)	2 (score 2 relating to strong activity comprising more than 70% of the cells)	2 (score 2 relating to strong activity comprising more than 70% of the cells)	2 (score 2 relating to strong activity comprising more than 70% of the cells)	0	1 (1 relating to weak activity comprising less than 70% of the cells)	1 (1 relating to weak activity comprising less than 70% of the cells)	0	0	0	IC50 (MRC5): 10 to 100 nM; IC50 (HT1080): 10 to 100 nM; IC50 (Jurkat): 10 to 100 nM
10 to 100	Nc1ccc(C(=O)Cn2c(-c3nonc3N)nc3ccccc32)cc1[N+](=O)[O-] [Example 65]	< 10	2 (score 2 relating to strong activity comprising more than 70% of the cells)	2 (score 2 relating to strong activity comprising more than 70% of the cells)	2 (score 2 relating to strong activity comprising more than 70% of the cells)	0	2 (score 2 relating to strong activity comprising more than 70% of the cells)	2 (score 2 relating to strong activity comprising more than 70% of the cells)	2 (score 2 relating to strong activity comprising more than 70% of the cells)	2 (score 2 relating to strong activity comprising more than 70% of the cells)	2 (score 2 relating to strong activity comprising more than 70% of the cells)	2 (score 2 relating to strong activity comprising more than 70% of the cells)	2 (score 2 relating to strong activity comprising more than 70% of the cells)	2 (score 2 relating to strong activity comprising more than 70% of the cells)	0	2 (score 2 relating to strong activity comprising more than 70% of the cells)	2 (score 2 relating to strong activity comprising more than 70% of the cells)	0	0	0	IC50 (MRC5): < 10 nM; IC50 (HT1080): < 10 nM; IC50 (Jurkat): < 10 nM
